Columns and labels:
RPS25 mRNA = assay: RPS25 siRNA knockdown, northern analysis of RPS25 mRNA level; type: cell-based, human; conditions: Huh7.13 cells, transient siRNA transfection, 72 hours, RPS25 mRNA normalized to β-actin mRNA, relative to control
Method: (§1) The day before transfection, 5×10^4 HeLa cells were seeded into 24-well plates. Once the cells reached 90% confluency, transfection of dual luciferase reporters was done using Lipofectamine 2000 (Invitrogen) according to the manufacturer's recommendations using 0.4 μg DNA per well. Cells were harvested for luciferase analysis after 24 hours. Double stranded RPS25 siRNAs, 5′-GGACUUAUCAAACUGGUUUtt-3′ (SEQ ID NO:3) and 5′-AAACCAGUUUGAUAAGUCCtt-3′ (SEQ ID NO:4) (Ambion, siRNA ID #142220), were used to knock down RPS25 in Huh7 cells. The Dicector™ DS (IDT; Coralville, Iowa) scrambled negative control duplex was used as a negative control. siRNA complexes were prepared in opti-MEM (Invitrogen) with 5 μl siPORT NeoFX transfection agent to a final siRNA concentration of 0.375 μM according to the manufacturer's specifications. siRNA complexes were plated and overlaid with 2×10^5 Huh7.13 cells in antibiotic-free media. The transfection media was replaced with complete media after 24 hours.
Total RNA was harvested with TRIzol (Invitrogen) according to the manufacturer's protocol from shRNA lentiviral transduced cells. […]

HCV (JFH1, genotype 2a) = assay: HCV amplification in RPS25 knockdown Huh7.13 cells, quantitative western analysis for NS5A; type: cell-based, hepatitis C virus; conditions: Huh7.13 cells infected with HCV at low MOI, 72 hours after infection, versus non-targeting control siRNA
Method: as §1
The HCV infection was carried out by inoculating Huh7.13 cells with 1 ml of culture medium from the HCV producer cell line Huh7 JFH1 HCV (genotype 2a). […]
Cells were lysed in E1 lysis buffer with 0.1% SDS. […] Signals were detected using flororchrome-conjugated secondary antibody for quantitative western blotting using the Odyssey scanner and software (LI-COR; Lincoln, Nebr.).

## siRNA that targets RPS25: Double stranded RPS25 siRNAs 5′-GGACUUAUCAAACUGGUUUtt-3′ (SEQ ID NO:3) and 5′-AAACCAGUUUGAUAAGUCCtt-3′ (SEQ ID NO:4), Ambion (chain 1 GGACUUAUCAAACUGGUUUTT; chain 2 AAACCAGUUUGAUAAGUCCTT; chemistry not given here)
RPS25 mRNA
  RPS25 knockdown effectiveness (RPS25 mRNA level): over 95%
HCV (JFH1, genotype 2a)
  HCV NS5A protein expression (HCV amplification): not detected

Source: patent US20150105433A1, “TREATING VIRAL INFECTIONS HAVING VIRAL RNAs TRANSLATED BY A NON-IRES MEDIATED MECHANISM” (THE UAB RESEARCH FOUNDATION, priority 2012, published 2015)
